Drawing on patent US8097733B2, “Pyrazole derivatives as 5-LO-inhibitors” (Pfizer Inc., priority 2007, dated 2012), this text covers IC50 and inhibition for 21 compounds.

Experiment [1] addresses T1, recombinant human 5-LOX (Homo sapiens, UniProt P09917).
T1 sequence (P09917 1-674): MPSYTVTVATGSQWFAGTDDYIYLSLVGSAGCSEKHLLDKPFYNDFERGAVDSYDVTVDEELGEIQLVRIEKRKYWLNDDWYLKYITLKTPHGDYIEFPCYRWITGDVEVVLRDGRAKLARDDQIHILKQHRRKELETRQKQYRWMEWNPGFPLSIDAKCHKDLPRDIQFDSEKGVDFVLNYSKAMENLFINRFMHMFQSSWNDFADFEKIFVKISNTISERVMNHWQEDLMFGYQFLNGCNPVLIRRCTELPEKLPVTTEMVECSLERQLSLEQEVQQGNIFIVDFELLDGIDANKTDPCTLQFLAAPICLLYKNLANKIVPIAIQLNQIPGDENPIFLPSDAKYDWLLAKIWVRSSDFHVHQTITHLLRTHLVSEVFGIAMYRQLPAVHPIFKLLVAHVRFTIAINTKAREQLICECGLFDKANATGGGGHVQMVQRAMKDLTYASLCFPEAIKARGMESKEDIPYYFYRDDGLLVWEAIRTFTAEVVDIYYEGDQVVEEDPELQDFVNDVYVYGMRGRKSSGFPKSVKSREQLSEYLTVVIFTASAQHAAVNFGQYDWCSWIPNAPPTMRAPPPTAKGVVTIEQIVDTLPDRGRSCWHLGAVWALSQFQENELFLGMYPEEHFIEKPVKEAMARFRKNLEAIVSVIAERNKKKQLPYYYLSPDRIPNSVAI
Description: Fluorescence Intensity 5-LOX Enzyme Assay. Conditions: crude lysate of recombinant human 5-LOX; highest inhibitor concentration tested typically 25 μM. The experiment is classed as biochemical. Put shortly: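 Crude lysate enzyme with H2DCFDA 10 μM (5 min dye pre-incubation), inhibitor pre-incubated 10 min; reaction started with 3 μM arachidonic acid plus 10 μM ATP in Tris pH 7.5, CaCl2, EDTA, 20 min at room temperature, acetonitrile stop. Fluorescein fluorescence; 7-point 4-parameter IC50, top 25 μM, 2.5% DMSO.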

In experiment [2] the test system is eicosanoid production in the rat air pouch. As to the kind of experiment: Carrageenan-induced eicosanoid production in the rat air pouch. The experiment is classed as in vivo. Conditions: po, male Lewis rats, 3 mpk by gavage 1 hour prior to carrageenan. As to the method: Carrageenan-Induced Eicosanoid Production in the Rat Air Pouch:
Male Lewis rats (175-200 g), Charles River Laboratories, Wilmington, Mass.) were used in the study. Air pouches were produced by subcutaneous injection of 20 ml of sterile air into the intrascapular area of the back. Pouches were allowed to develop for 1 day. Animals (6 per group) were fasted with free access to water for 16 to 24 hours prior to drug administration. Drugs or vehicle were administered by gavage 1 hour prior to injection of 2 ml of a 1% suspension of carrageenan (FMC BioPolymer, Philadelphia, Pa., Cat. # GP209-NF) dissolved in saline into the pouch. At 3 hours post-carrageenan injection, 1 ml of 50 μg/ml calcium ionophore in saline (A23187, Sigma Chemical Co, St. Louis, M, Cat. #C-7522) was injected into the pouch and the pouch fluid collected 10 minutes later by lavage. The fluid was centrifuged at 3500 rpm for 10 minutes at 4° C., and the supernatants were collected for analysis. Leukotriene and prostaglandin levels were quantitated by ELISA according to the manufacturer's directions (Cayman Chemical Company, Ann Arbor, Mi).

Experiment [3] has as its system human whole blood (leukotriene and prostaglandin levels). As to the kind of experiment: Eicosanoid production from human whole blood. Type of experiment: cell-based. Conditions: human whole blood stimulated with calcium ionophore A23187 and arachidonic acid; ELISA. In outline: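 Pooled heparinized whole blood from healthy or asthmatic donors was preincubated with compound for 10 min at room temperature, with 2.5% DMSO final. It was stimulated with calcium ionophore A23187 plus arachidonic acid (30 μM) in 60% ethanol for 15 min at 37 °C. Plasma leukotrienes and prostaglandins were measured by ELISA.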
(ELISA stands for enzyme-linked immunosorbent assay.)

One may read the IC50 as the midpoint of a concentration-inhibition curve. In general, inhibition refers to the relative decrease from the control value, in per cent. A low value points to a weak effect.

Consider `C[C@H]1C[C@@](C#N)(c2cc(F)cc(Sc3ccc(-c4ccnn4C)cc3)c2)CCO1` [27(2), (2S,4R)-4-(3-fluoro-5-(4-(1-methyl-1H-pyrazol-5-yl)phenylthio)phenyl)-2-methyl-tetrahydro-2H-pyran-4-carbonitrile], for which the IC50 is 0.331 µM in experiment [1] and 0.123 µM in experiment [3]. In experiment [2], this compound gave an inhibition at 3 mg/kg of 100%.
On the same counts, the results for `C[C@H]1C[C@@](C#N)(c2cccc(Sc3ccc(-c4ccnn4C)cc3)c2F)CCO1` [29(2), (2S,4R)-4-(2-fluoro-3-(4-(1-methyl-1H-pyrazol-5-yl)phenylthio)phenyl)-2-methyl-tetrahydro-2H-Pyran-4-carbonitrile] are 0.03 µM, 0.0625 µM and 100%.
On the same counts, the results for `C[C@H]1C[C@@](C#N)(c2cccc(Sc3ccc(-c4ccnn4C)c(F)c3)c2)CCO1` [30(2), (2S,4R)-4-(3-(3-fluoro-4-(1-methyl-1H-pyrazol-5-yl)phenylthio)phenyl)-2-methyl-tetrahydro-2H-pyran-4-carbonitrile] are 0.113 µM, 0.0557 µM and 95%.
The matching figures for `C[C@H]1C[C@@](C#N)(c2cccc(Sc3ccc(-c4ccnn4C)c(F)c3)c2F)CCO1` [31(1), (2S,4R)-4-(2-fluoro-3-(3-fluoro-4-(1-methyl-1H-pyrazol-5-yl)phenylthio)phenyl)-2-methyl-tetrahydro-2H-pyran-4-carbonitrile]: 0.0215 µM, 0.0598 µM and 96%.
In the case of `C[C@H]1C[C@@](C#N)(c2cc(F)cc(Sc3ccc(-c4ccnn4C)c(F)c3)c2)CCO1` [32(1), (2S,4R)-4-(3-fluoro-5-(3-fluoro-4-(1-methyl-1H-pyrazol-5-yl)phenylthio)phenyl)-2-methyl-tetrahydro-2H-pyran-4-carbonitrile], the half-inhibitory concentration (IC50) in experiment [1] came out at 0.151 µM; in experiment [3], 0.107 µM. In experiment [2], this compound came in with an inhibition at 3 mg/kg of 93%.
In the case of `C[C@H]1C[C@@](C#N)(c2cccc(Sc3cnc(Oc4ccnn4C)c(Cl)c3)c2F)CCO1` [52(4), (2S,4R)-4-(3-(5-chloro-6-(1-methyl-1H-pyrazol-5-yloxy)pyridin-3-ylthio)-2-fluorophenyl)-2-methyl-tetrahydro-2H-pyran-4-carbonitrile], the 50% inhibitory concentration (IC50) in experiment [1] was determined as 0.0291 µM; in experiment [3] it was 0.118 µM. Also, at 3 mg/kg the inhibition in experiment [2] was 97%.
Regarding `Cc1nccn1-c1ccc(Sc2cccc(C3(C(N)=O)CCOCC3)c2)cc1` [(d), 4-(3-(4-(2-methyl-1H-imidazol-1-yl)phenylthio)phenyl)-tetrahydro-2H-pyran-4-carboxamide, reference compound], the IC50 came to 0.877 µM in experiment [1] and 0.275 µM in experiment [3]. Moreover, in experiment [2], testing at 3 mg/kg gave an inhibition of 73.1%.
The matching figures for `Cn1nccc1-c1ccc(Sc2cccc(C3(C(N)=O)CCOCC3)c2)cc1Cl` [Example 1, 4-(3-{[3-chloro-4-(1-methyl-1H-pyrazol-5-yl)phenyl]thio}phenyl)tetrahydro-2H-pyran-4-carboxamide]: 0.0897 µM, 0.0765 µM and 50.5%.
On the same counts, the results for `Cn1nccc1-c1ccc(Sc2cccc(C3(C(N)=O)CCOCC3)c2)cc1C#N` [Example 2, 4-(3-{[3-Cyano-4-(1-methyl-1H-pyrazol-5-yl)phenyl]thio}phenyl)tetrahydro-2H-pyran-4-carboxamide] are 0.66 µM, 0.196 µM and 0%.
For `CNC(=O)C1(c2cccc(Sc3ccc(-c4ccnn4C)cc3)c2)CCOCC1` [Example 10, N-Methyl-4-(3-{[4-(1-methyl-1H-pyrazol-5-yl)phenyl]thio}phenyl)tetrahydro-2H-pyran-4-carboxamide], the IC50 in experiment [1] was 0.287 µM; in experiment [3], 0.294 µM. The inhibition at 3 mg/kg in experiment [2] amounted to 5%.
The matching figures for `Cn1nccc1-c1ncc(Sc2cccc(C3(C(N)=O)CCOCC3)c2)cc1Cl` [Example 11, 4-(3-{[5-chloro-6-(1-methyl-1H-pyrazol-5-yl)pyridin-3-yl]thio}phenyl)tetrahydro-2H-pyran-4-carboxamide]: 0.386 µM, 0.26 µM and 69%.
The matching figures for `Cn1nccc1-c1ccc(Sc2cccc(C3(C(N)=O)CCOCC3)c2)c(Cl)c1` [Example 13, 4-(3-{[2-chloro-4-(1-methyl-1H-pyrazol-5-yl)phenyl]thio}phenyl)tetrahydro-2H-pyran-4-carboxamide]: 0.054 µM, 0.119 µM and 1%.
The matching figures for `Cn1nccc1-c1ccc(Sc2cc(F)cc(C3(C(N)=O)CCOCC3)c2)cc1` [Example 15, 4-(3-fluoro-5-{[4-(1-methyl-1H-pyrazol-5-yl)phenyl]thio}phenyl)tetrahydro-2H-pyran-4-carboxamide]: 0.264 µM, 0.365 µM and 68.5%.
As for `CNC(=O)C1(c2cccc(Sc3ccc(-c4ccnn4C)cc3Cl)c2)CCOCC1` [Example 16, 4-(3-{[2-chloro-4-(1-methyl-1H-pyrazol-6-yl)phenyl]thio}phenyl)-N-methyltetrahydro-2H-pyran-4-carboxamide], the IC50 was 0.0679 µM in experiment [1] and 0.331 µM in experiment [3]. This compound registered an inhibition at 3 mg/kg in experiment [2] of 0%.
The matching figures for `CNC(=O)C1(c2cccc(Sc3ccc(-c4ccnn4C)cc3)c2F)CCOCC1` [Example 17, 4-(2-fluoro-3-{[4-(1-methyl-1H-pyrazol-5-yl)phenyl]thio}phenyl)-N-methyl-tetrahydro-2H-pyran-4-carboxamide]: 0.146 µM, 0.962 µM and 83%.
As for `CNC(=O)C1(c2cc(F)cc(Sc3ccc(-c4ccnn4C)cc3)c2F)CCOCC1` [Example 19, 4-(2,5-difluoro-3-{[4-(1-methyl-1H-pyrazol-5-yl)phenyl]thio}phenyl)-N-methyltetrahydro-2H-pyran-4-carboxamide], the IC50 amounted to 0.114 µM in experiment [1] and 0.996 µM in experiment [3]. This compound also registered an inhibition at 3 mg/kg in experiment [2] of 95.3%.
For the compound `Cn1nccc1-c1ccc([S+]([O-])c2cccc(C3(C(N)=O)CCOCC3)c2)cc1` (stereo not shown) [Example 50, 4-(3-{[4-(1-methyl-1H-pyrazol-5-yl)phenyl]sulfinyl}phenyl)tetrahydro-2H-pyran-4-carboxamide], the IC50 in experiment [1] is not below 25 µM. Testing at 3 mg/kg in experiment [2] gave an inhibition of 12%.
On to `C[C@@H]1C[C@](C#N)(c2cccc(Sc3ccc(-c4ccnn4C)cc3)c2)CCO1` [Example 82, (2R,4S)-2-methyl-4-(3-{[4-(1-methyl-1H-pyrazol-5-yl)phenyl]thio}phenyl)tetrahydro-2H-pyran-4-carbonitrile], for which the half-maximal inhibitory concentration (IC50) in experiment [1] stood at 1.2 µM; in experiment [3], 0.53 µM.
The matching figures for `CCNC(=O)C1(c2cccc(Sc3ccc(-c4ccnn4C)cc3)c2)CCOCC1` [Example 86, N-ethyl-4-(3-{[4-(1-methyl-1H-pyrazol-5-yl)phenyl]thio}phenyl)tetrahydro-2H-pyran-4-carboxamide]: 0.324 µM and 0.565 µM.
In the case of `Cn1nccc1-c1ccc(Sc2cccc(C3(C(N)=O)CCOCC3)c2Cl)cc1` [Example 87, 4-(2-chloro-3-{[4-(1-methyl-1H-pyrazol-5-yl)phenyl]thio}phenyl)tetrahydro-2H-pyran-4-carboxamide], the IC50 was found to be 1.1 µM in experiment [1] and 1.01 µM in experiment [3].
On the same counts, the results for `Cn1nccc1-c1ccc(Sc2cccc(C3(C(N)=O)CCOCC3)c2)c(C#N)c1` [Example 88, 4-(3-{[2-cyano-4-(1-methyl-1H-pyrazol-5-yl)phenyl]thio}phenyl)tetrahydro-2H-pyran-4-carboxamide] are 3.22 µM and 1.17 µM.
